Source: patent EP4603105A1, “PHARMACEUTICAL COMPOSITION CONTAINING CYCLIC COMPOUND HAVING SELECTIVE KRAS INHIBITORY EFFECT AGAINST HRAS AND NRAS” (CHUGAI SEIYAKU KABUSHIKI KAISHA, priority 2022, dated 2024)
pIC50: −log10 of the molar value. *1 amine or outer side, *2 acyl side, *3 side chain or, on linkers, in order; H or OH if unused. Where a SMILES comes first, the peptide text is derived from it. Bridges are numbered along the chain shown (N, C = ends). [ ]: non-standard residue; d: D form. The star is where a group is joined. hPhe(3-Cl-4-CF3) = N[C@@H](CCc1ccc(C(F)(F)F)c(Cl)c1)C(=O)O; NPrPhe(4-CF3) = CCCN[C@@H](Cc1ccc(C(F)(F)F)cc1)C(=O)O; X30 = CCN([C@H](C(=O)[*:2])C1CCCC1)[*:1]; NMeGly(cPent) = CN[C@H](C(=O)O)C1CCCC1; X9 = CC1(C)CN([*:1])[C@@H]1C(=O)[*:2]; NMeD = CN[C@@H](CC(=O)O)C(=O)O; NMeL = CN[C@@H](CC(C)C)C(=O)O; Morpholide = C1CN(*)CCO1; NMeA = CN[C@@H](C)C(=O)O; Ac5c = NC1(C(=O)O)CCCC1; Aze = O=C(O)[C@@H]1CCN1; Abu = CC[C@H](N)C(=O)O; Ac4c = NC1(C(=O)O)CCC1; Sar = CNCC(=O)O

What was measured:
[1] = target: GDP-bound NRAS wild-type protein (Homo sapiens, UniProt P01111); assay: Binding to NRAS by surface plasmon resonance (SPR), KD and KD ratio to KRAS
Sequence of GDP-bound NRAS wild-type protein (P01111 whole entry): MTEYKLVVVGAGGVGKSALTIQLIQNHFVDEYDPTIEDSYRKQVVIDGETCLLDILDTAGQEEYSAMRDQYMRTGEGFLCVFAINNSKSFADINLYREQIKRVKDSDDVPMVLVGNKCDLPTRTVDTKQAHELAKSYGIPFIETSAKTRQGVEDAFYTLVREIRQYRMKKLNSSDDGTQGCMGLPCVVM
Outline: (§1)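 Captured GDP-RAS (~100–300 RU) was exposed to increasing compound concentrations, 75 s per step, in running buffer with 10 µM GDP, 10 mM MgCl2 and 4% DMSO at pH 7.4.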

HRAS wild-type protein = HRAS wild-type protein (Homo sapiens, UniProt P01112); assay: Binding to HRAS by surface plasmon resonance (SPR), KD and KD ratio to KRAS
Sequence of HRAS wild-type protein (P01112 whole entry): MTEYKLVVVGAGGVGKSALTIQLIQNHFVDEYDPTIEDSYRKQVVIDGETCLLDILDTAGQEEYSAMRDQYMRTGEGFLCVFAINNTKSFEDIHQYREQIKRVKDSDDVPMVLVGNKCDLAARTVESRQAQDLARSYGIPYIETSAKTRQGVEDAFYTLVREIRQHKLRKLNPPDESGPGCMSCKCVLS
Outline: as §1

[2] = tested on: human lung cancer strain NCI-H441; type: cell-based
Outline: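 Step one: dispense the test compound in serial DMSO dilutions. Step three: add the reagent and measure […].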

[3] = ratio of the KD value with respect to GDP-bound NRAS wild-type protein to the KD value with respect to KRAS
[4] = ratio of the KD value with respect to HRAS wild-type protein to the KD value with respect to KRAS
[5] = ratio of KD for GDP-bound NRAS wild-type protein to KD for KRAS
[6] = ratio of KD for HRAS wild-type protein to KD for KRAS

## CCO[C@@H]1C[C@H]2C(=O)NC3(CCC3)C(=O)N(C)[C@@H](C3CCCC3)C(=O)N(C)[C@H](C(=O)N(C)C)CC(=O)N(C)[C@@H](C)C(=O)N[C@@H]([C@@H](C)CC)C(=O)N(C)CC(=O)N(C)[C@H]3CCCCN(C3=O)[C@@H](Cc3ccc(C(F)(F)F)cc3)C(=O)N(C)CC(=O)N[C@@H](CCc3cc(F)c(C(F)(F)F)c(F)c3)C(=O)N2C1 [PP0587]
[1]; [3]
  NRAS /KRAS: C (A compound having a KD ratio of 0.1 or more and less than 3 is denoted as C)
HRAS wild-type protein; [4]
  HRAS /KRAS: C (A compound having a KD ratio of 0.1 or more and less than 3 is denoted as C)
[2]
  pIC50: 8.29

## CCOC[C@H]1C(=O)N[C@@H]([C@@H](C)CC)C(=O)N(C)CC(=O)N(C)[C@H]2C/C=C\CCN(C2=O)[C@@H](Cc2ccc(C(F)(F)F)cc2)C(=O)N(C)CC(=O)N[C@@H](CCc2cc(F)c(C(F)(F)F)c(F)c2)C(=O)N2C[C@@H](C)C[C@H]2C(=O)NC2(CC(C)(C)C2)C(=O)N(C)[C@@H](C2CCCC2)C(=O)N(C)[C@H](C(=O)N(C)CC)CC(=O)N1C [PP2042]
[1]; [3]
  NRAS /KRAS: A (a compound having 10 or more and less than 20 is denoted as A)
HRAS wild-type protein; [4]
  HRAS /KRAS: A (a compound having 10 or more and less than 20 is denoted as A)
[2]
  pIC50: 8.23

## CC[C@@H]1C[C@H]2C(=O)NC3(CCCC3)C(=O)N(C)[C@@H](C3CCCC3)C(=O)N(C)[C@H](C(=O)N(C)CC)CC(=O)N(C)[C@@H](C)C(=O)N[C@@H]([C@@H](C)CC)C(=O)N(C)CC(=O)N(C)[C@H]3C/C=C\CCN(C3=O)[C@@H](Cc3ccc(C(F)(F)F)cc3)C(=O)N(C)CC(=O)N[C@@H](CCc3cc(F)c(C(F)(F)F)c(F)c3)C(=O)N2C1 [PP2271]
[1]; [3]
  NRAS /KRAS: A (a compound having 10 or more and less than 20 is denoted as A)
HRAS wild-type protein; [4]
  HRAS /KRAS: A (a compound having 10 or more and less than 20 is denoted as A)
[2]
  pIC50: 7.22

## CCO[C@@H]1C[C@H]2C(=O)NC3(CC(F)(F)C3)C(=O)N(C)[C@@H](C3CCCC3)C(=O)N(C)[C@H](C(=O)N3CCOCC3)CC(=O)N(C)[C@@H](COC)C(=O)N[C@@H]([C@@H](C)CC)C(=O)N(C)CC(=O)N(C)[C@H]3CCCCCN(C3=O)[C@@H](Cc3ccc(C(F)(F)F)cc3)C(=O)N(C)CC(=O)N[C@@H](CCc3cc(F)c(C(F)(F)F)c(F)c3)C(=O)N2C1 [PP0843]
[1]; [5]
  NRAS /KRAS: B (a compound having 3 or more and less than 10 is denoted as B)
HRAS wild-type protein; [6]
  HRAS /KRAS: B (a compound having 3 or more and less than 10 is denoted as B)
[2]
  pIC50: 7.41

## CC[C@H](C)[C@@H]1NC(=O)[C@H](CC(C)C)N(C)C(=O)C[C@@H](C(=O)N2CCOCC2)N(C)C(=O)[C@H](C2CCCC2)N(C)C(=O)C2(CCCC2)NC(=O)[C@@H]2CCCN2C(=O)[C@H](CCc2cc(F)c(C(F)(F)F)c(F)c2)NC(=O)CN(C)C(=O)[C@H](Cc2ccc(C(F)(F)F)cc2)N2CCCCC[C@@H](C2=O)N(C)C(=O)[C@H](C)NC1=O [PP0481]
[1]; [3]
  NRAS /KRAS: B (a compound having 3 or more and less than 10 is denoted as B)
HRAS wild-type protein; [4]
  HRAS /KRAS: B (a compound having 3 or more and less than 10 is denoted as B)
[2]
  pIC50: < 6.00

## CCO[C@@H]1C[C@H]2C(=O)NC3(CC(F)(F)C3)C(=O)N(C)[C@@H](C3CCCC3)C(=O)N3CCC[C@@H]3CC(=O)N(C)[C@@H](CC3CC3)C(=O)N[C@@H]([C@@H](C)CC)C(=O)N(C)CC(=O)N(C)[C@H]3C/C=C\CCN(C3=O)[C@@H](Cc3ccc(C(F)(F)F)cc3)C(=O)N(C)CC(=O)N[C@@H](CCc3cc(F)c(C(F)(F)F)c(F)c3)C(=O)N2C1 [PP1615]
[1]; ratio of KD value for GDP-bound NRAS wild-type protein to KD value for KRAS (SPR)
  NRAS /KRAS: B (a compound having 3 or more and less than 10 is denoted as B)
HRAS wild-type protein; ratio of KD value for HRAS wild-type protein to KD value for KRAS (SPR)
  HRAS /KRAS: B (a compound having 3 or more and less than 10 is denoted as B)
[2]
  pIC50: 7.68

## CCO[C@@H]1C[C@H]2C(=O)NC3(CCC3)C(=O)N(C)[C@@H](C3CCCC3)C(=O)N(C)[C@H](C(=O)N3CCCCC3)CC(=O)N(C)[C@H]3CCCCCCc4ccc(cc4)C[C@@H](C(=O)N(C)CC(=O)N[C@@H](CCc4ccc(C(F)(F)F)c(OC)c4)C(=O)N2C1)N1CC/C=C\C[C@@H](C1=O)N(C)C(=O)CN(C)C(=O)[C@H]([C@@H](C)CC)NC3=O [PP3033]
[1]; [5]
  NRAS /KRAS: A (a compound having 10 or more and less than 20 is denoted as A)
HRAS wild-type protein; [6]
  HRAS /KRAS: B (a compound having 3 or more and less than 10 is denoted as B)
[2]
  pIC50: 8.33

## CCC[C@H]1C(=O)N[C@@H]([C@@H](C)CC)C(=O)N(C)CC(=O)N(C)[C@H]2C/C=C\CCN(C2=O)[C@@H](Cc2ccc(C(F)(F)F)cc2)C(=O)N(C)CC(=O)N[C@@H](CCc2ccc(C(F)(F)F)c(Cl)c2)C(=O)N2CCCCC[C@H]2C(=O)NC2(CC(C)(C)C2)C(=O)N(C)[C@@H](C(CC)CC)C(=O)N(C)[C@H](C(=O)N(C)C)CC(=O)N1C [PP2964]
[1]; [5]
  NRAS /KRAS: AA (a compound having 20 or more is denoted as AA)
HRAS wild-type protein; [6]
  HRAS /KRAS: A (a compound having 10 or more and less than 20 is denoted as A)
[2]
  pIC50: 7.30

## CCO[C@@H]1C[C@H]2C(=O)NC3(CCC3)C(=O)N(C)[C@@H](C3CCCC3)C(=O)N(C)[C@H](C(=O)N3CCOCC3)CC(=O)N(C)[C@@H](CCOC)C(=O)N[C@@H]([C@@H](C)CC)C(=O)N(C)CC(=O)N(C)[C@H]3CCCCN(C3=O)[C@@H](Cc3ccc(C(F)(F)F)cc3)C(=O)N(C)CC(=O)N[C@@H](CCc3cc(F)c(C(F)(F)F)c(F)c3)C(=O)N2C1 [PP0720]
[1]; [3]
  NRAS /KRAS: C (A compound having a KD ratio of 0.1 or more and less than 3 is denoted as C)
HRAS wild-type protein; [4]
  HRAS /KRAS: B (a compound having 3 or more and less than 10 is denoted as B)
[2]
  pIC50: 7.86

## CCCN1C(=O)CN(C)C(=O)CN(C)C(=O)[C@H]([C@@H](C)CC)NC(=O)[C@H](CC(C)C)N(C)C(=O)C[C@@H](C(=O)N2CCOCC2)N(C)C(=O)[C@H](C2CCCC2)N(CC)C(=O)C2(CCC2)NC(=O)[C@@H]2CCCN2C(=O)[C@H](CCc2ccc(C(F)(F)F)c(Cl)c2)NC(=O)CN(C)C(=O)[C@@H]1Cc1ccc(C(F)(F)F)cc1 [PP1952] ([NMeL]I[Sar][Sar][NPrPhe(4-CF3)][Sar][hPhe(3-Cl-4-CF3)]P[Ac4c][X30][NMeD]-Morpholide; lactam N-11)
[1]; [3]
  NRAS /KRAS: B (a compound having 3 or more and less than 10 is denoted as B)
HRAS wild-type protein; [4]
  HRAS /KRAS: B (a compound having 3 or more and less than 10 is denoted as B)
[2]
  pIC50: 7.85

## CC[C@H](C)[C@@H]1NC(=O)[C@H](CC(C)C)N(C)C(=O)C[C@@H](C(=O)N2CCOCC2)N(C)C(=O)[C@H](C2CCCC2)N(C)C(=O)C2(CCCC2)NC(=O)[C@H](C)N(CC)C(=O)[C@H](CCc2cc(F)c(C(F)(F)F)c(F)c2)NC(=O)CN(C)C(=O)[C@H](Cc2ccc(C(F)(F)F)cc2)N2CCCCC[C@@H](C2=O)N(C)C(=O)CN(C)C1=O [PP0515]
[1]; [3]
  NRAS /KRAS: B (a compound having 3 or more and less than 10 is denoted as B)
HRAS wild-type protein; [4]
  HRAS /KRAS: B (a compound having 3 or more and less than 10 is denoted as B)
[2]
  pIC50: 6.20

## CCCN1C(=O)CN(C)C(=O)[C@H]2N(CC2(C)C)C(=O)[C@H]([C@@H](C)CC)NC(=O)[C@H](CC(C)C)N(C)C(=O)C[C@@H](C(=O)N2CCOCC2)N(C)C(=O)[C@H](C2CCCC2)N(C)C(=O)C2(CCCC2)NC(=O)[C@@H]2CCCN2C(=O)[C@H](CCc2ccc(C(F)(F)F)c(Cl)c2)NC(=O)CN(C)C(=O)[C@@H]1Cc1ccc(C(F)(F)F)cc1 [PP0256] ([NMeL]I[X9][Sar][NPrPhe(4-CF3)][Sar][hPhe(3-Cl-4-CF3)]P[Ac5c][NMeGly(cPent)][NMeD]-Morpholide; lactam N-11)
[1]; [5]
  NRAS /KRAS: B (a compound having 3 or more and less than 10 is denoted as B)
HRAS wild-type protein; [6]
  HRAS /KRAS: C (A compound having a KD ratio of 0.1 or more and less than 3 is denoted as C)
[2]
  pIC50: 7.58

## CC[C@H](C)[C@@H]1NC(=O)[C@H](CC(C)C)N(C)C(=O)C[C@@H](C(=O)N(C)C)N(CCC2CCCC2)C(=O)[C@H](C2CCCC2)N(C)C(=O)C2(CCC2)NC(=O)[C@@H]2CC(F)(F)CN2C(=O)[C@H](CCc2ccc(C(F)(F)F)c(Cl)c2)NC(=O)CN(C)C(=O)[C@H](Cc2ccc(F)cc2)N2CCCCC[C@@H](C2=O)N(C)C(=O)CN(C)C1=O [PP0977]
[1]; [5]
  NRAS /KRAS: B (a compound having 3 or more and less than 10 is denoted as B)
HRAS wild-type protein; [6]
  HRAS /KRAS: A (a compound having 10 or more and less than 20 is denoted as A)
[2]
  pIC50: 5.95

## CCCN1C(=O)[C@@H]2CCN2C(=O)[C@H](C)N(C)C(=O)[C@H](CC)NC(=O)[C@H](CC(C)C)N(C)C(=O)C[C@@H](C(=O)N2CCOCC2)N(C)C(=O)[C@H](C2CCCC2)N(C)C(=O)C2(CCCC2)NC(=O)[C@@H]2CCCN2C(=O)[C@H](CCc2ccc(C(F)(F)F)c(Cl)c2)NC(=O)CN(C)C(=O)[C@@H]1Cc1ccc(C(F)(F)F)cc1 [PP0269] ([NMeL][Abu][NMeA][Aze][NPrPhe(4-CF3)][Sar][hPhe(3-Cl-4-CF3)]P[Ac5c][NMeGly(cPent)][NMeD]-Morpholide; lactam N-11)
[1]; [5]
  NRAS /KRAS: C (A compound having a KD ratio of 0.1 or more and less than 3 is denoted as C)
HRAS wild-type protein; [6]
  HRAS /KRAS: B (a compound having 3 or more and less than 10 is denoted as B)
[2]
  pIC50: 7.46
